Among the data in BindingDB's records for doi:10.1016/s0968-0896(99)00215-1 (Parke-Davis Pharmaceutical Research, 1999) are IC50 and Ki values, retold here.

A word on the IC50: it is the midpoint of a concentration-inhibition curve. Read a high IC50 as a need for much substance. Usually Ki stands for the dissociation constant of the complex between target and ligand, obtained from inhibition or displacement. Higher therefore signals a looser hold on the target.

The first assay concerns the target T1, Dimer of Gag-Pol polyprotein [489-587] (Human immunodeficiency virus 1, UniProt P12497).
T1 construct: 489-587
Nature of the assay: Protease Inhibition Assay.
Details: not given
The method, then:
For determination of IC50 values, HIV-1 protease was added to assay buffer containing inhibitor and the substrate (H-His-Lys-Ala-Arg-Val-Leu- (p-NO2) Phe-Glu-Ala-norleucine-Ser-NH2). The Leu- (p-NO2) Phe bond of the substrate was cleaved by the enzyme, and the substrate and products were separated by reversed-phase HPLC. Absorbance was measured at 220 nm, peak areas were determined, and percentage conversion to product was calculated.
In the case of `Cc1cc(SC2C(=O)CC(CCc3ccc(O)cc3)(C3CC3)OC2=O)c(C(C)(C)C)cc1OCCO` (stereo not given) [(3-(2-tert-Butyl-4-(2-hydroxy-ethoxy)-5-methyl-phenylsulfanyl)-6-cyclopropyl-4-hydroxy-6-[2-(4-hydroxy-phenyl)-ethyl]-5,6-dihydro-pyran-2-one], the IC50 was 3.8 nM.
The compound `Cc1cc(SC2C(=O)C[C@](CCc3ccc(O)cc3)(C(C)C)OC2=O)c(C(C)(C)C)cc1CO` (stereo not given in full) [(3-(2-tert-Butyl-4-hydroxymethyl-5-methyl-phenylsulfanyl)-4-hydroxy-6-[2-(4-hydroxypheny)-ethyl]-6-isopropyl-5,6-dihydro-pyran-2-one] had a Ki of 31 nM.
With `Cc1cc(SC2C(=O)C[C@](CCc3ccccc3)(C(C)C)OC2=O)c(C(C)(C)C)cc1CO` (stereo partly drawn) [(6R)-3-{[2-tert-butyl-4-(hydroxymethyl)-5-methylphenyl]sulfanyl}-4-hydroxy-6-(2-phenylethyl)-6-(propan-2-yl)-5,6-dihydro-2H-pyran-2-one], the Ki stood at 160 nM.
On the same count and under the same terms, in the case of `Cc1cc(SC2C(=O)C[C@](CCc3ccc(N)cc3)(C(C)C)OC2=O)c(C(C)(C)C)cc1CO` (stereo partly drawn) [(6R)-6-[2-(4-aminophenyl)ethyl]-3-{[2-tert-butyl-4-(hydroxymethyl)-5-methylphenyl]sulfanyl}-4-hydroxy-6-(propan-2-yl)-5,6-dihydro-2H-pyran-2-one] it was 25 nM; in that of `Cc1cc(SC2C(=O)C[C@@](CCc3ccccc3)(C(C)C)OC2=O)c(C(C)(C)C)cc1CO` (stereo partly drawn) [(6S)-3-{[2-tert-butyl-4-(hydroxymethyl)-5-methylphenyl]sulfanyl}-4-hydroxy-6-(2-phenylethyl)-6-(propan-2-yl)-5,6-dihydro-2H-pyran-2-one], 0.09 nM.
Still for that read-out and setting: in the case of `Cc1cc(SC2C(=O)C[C@@](CCc3ccc(O)cc3)(C(C)C)OC2=O)c(C(C)(C)C)cc1CO` (stereo partly drawn) [(6S)-3-{[2-tert-butyl-4-(hydroxymethyl)-5-methylphenyl]sulfanyl}-4-hydroxy-6-[2-(4-hydroxyphenyl)ethyl]-6-(propan-2-yl)-5,6-dihydro-2H-pyran-2-one] it was 0.09 nM.
Still for that read-out and setting: then `Cc1cc(SC2C(=O)C[C@@](CCc3ccc(N)cc3)(C(C)C)OC2=O)c(C(C)(C)C)cc1CO` (stereo partly drawn) [(6S)-6-[2-(4-aminophenyl)ethyl]-3-{[2-tert-butyl-4-(hydroxymethyl)-5-methylphenyl]sulfanyl}-4-hydroxy-6-(propan-2-yl)-5,6-dihydro-2H-pyran-2-one], with 0.11 nM.
For `Cc1cc(SC2C(=O)CC(CCc3ccccc3)(c3ccccc3)OC2=O)c(C(C)(C)C)cc1CO` (stereo not given) [PD 178390 Analog 38], 6.5 nM corresponded to half-maximal inhibition (IC50).

Staying with this assay, now noted: pH 6.2; 37 °C.
As to `Cc1cc(SC2C(=O)CC(CCc3ccc(O)cc3)(C3CC3)OC2=O)c(C(C)(C)C)cc1CO` (stereo not given) [(3-(2-tert-Butyl-4-hydroxymethyl-5-methyl-phenylsulfanyl)-6-cyclopropyl-4-hydroxy-6-[2-(4-hydroxy-phenyl)-ethyl]-5,6-dihydro-pyran-2-one], the IC50 is 1 nM.
`Cc1ccc(C(C)(C)C)c(SC2C(=O)CC(CCc3ccc(O)cc3)(C3CCCC3)OC2=O)c1` (stereo not given) [(3-(2-tert-Butyl-5-methyl-phenylsulfanyl)-4-hydroxy-6-[2-(4-hydroxy-phenyl)-ethyl]-6-cyclopentyl-5,6-dihydro-pyran-2-one] registered a half-inhibitory concentration (IC50) of 7.2 nM.
Still for that read-out and setting: then `Cc1ccc(C(C)(C)C)c(SC2C(=O)CC(CCc3ccc(O)cc3)(C(C)C)OC2=O)c1` (stereo not given) [(3-(2-tert-Butyl-5-methyl-phenylsulfanyl)-4-hydroxy-6-[2-(4-hydroxy-phenyl)-ethyl]-6-isopropyl-5,6-dihydro-pyran-2-one], with 4.6 nM; and `Cc1ccc(C(C)(C)C)c(SC2C(=O)CC(C)(CCc3ccc(O)cc3)OC2=O)c1` (stereo not given) [(3-(2-tert-Butyl-5-methyl-phenylsulfanyl)-4-hydroxy-6-[2-(4-hydroxy-phenyl)-ethyl]-6-methyl-5,6-dihydro-pyran-2-one], with 9.5 nM; and `Cc1ccc(C(C)(C)C)c(SC2C(=O)CC(CCc3ccc(O)cc3)(C3CC3)OC2=O)c1` (stereo not given) [(3-(2-tert-Butyl-5-methyl-phenylsulfanyl)-6-cyclopropyl-4-hydroxy-6-[2-(4-hydroxy-phenyl)-ethyl]-5,6-dihydro-pyran-2-one], with 8 nM.
On the same count and under the same terms, in the case of `Cc1cc(SC2C(=O)CC(CCc3ccc(O)cc3)(C3CCCCC3)OC2=O)c(C(C)(C)C)cc1CO` (stereo not given) [PD 178390 Analog 21] it was 2.5 nM.
On to `Cc1cc(SC2C(=O)CC(CCc3ccc(O)cc3)(C(C)C)OC2=O)c(C(C)(C)C)cc1O` (stereo not given) [PD 178390 Analog 23], for which the affinity, expressed as Ki, was 0.03 nM.
